Measurements reported in patent US7714023B2, “Treatment or prophylaxis of migraine or headache disorders using citalopram, escitalopram or citalopram metabolites” (priority 2004, dated 2010).
Several values for one entry are separate records, joined by “and”; a condition that tells them apart may be missing. Identical values can stand only once. Like-named read-outs stand apart in the source and are kept apart here. Blank lines part the entries; values can stand above or below the molecule they belong to.

Legend:
5-HT transporter (h) = target: T1, 5-HT transporter (h) (Homo sapiens, UniProt P31645); assay type: binding
T1 construct: expressed in transfected cells; host or cells: HEK 293 cells
T1 sequence (P31645 whole entry): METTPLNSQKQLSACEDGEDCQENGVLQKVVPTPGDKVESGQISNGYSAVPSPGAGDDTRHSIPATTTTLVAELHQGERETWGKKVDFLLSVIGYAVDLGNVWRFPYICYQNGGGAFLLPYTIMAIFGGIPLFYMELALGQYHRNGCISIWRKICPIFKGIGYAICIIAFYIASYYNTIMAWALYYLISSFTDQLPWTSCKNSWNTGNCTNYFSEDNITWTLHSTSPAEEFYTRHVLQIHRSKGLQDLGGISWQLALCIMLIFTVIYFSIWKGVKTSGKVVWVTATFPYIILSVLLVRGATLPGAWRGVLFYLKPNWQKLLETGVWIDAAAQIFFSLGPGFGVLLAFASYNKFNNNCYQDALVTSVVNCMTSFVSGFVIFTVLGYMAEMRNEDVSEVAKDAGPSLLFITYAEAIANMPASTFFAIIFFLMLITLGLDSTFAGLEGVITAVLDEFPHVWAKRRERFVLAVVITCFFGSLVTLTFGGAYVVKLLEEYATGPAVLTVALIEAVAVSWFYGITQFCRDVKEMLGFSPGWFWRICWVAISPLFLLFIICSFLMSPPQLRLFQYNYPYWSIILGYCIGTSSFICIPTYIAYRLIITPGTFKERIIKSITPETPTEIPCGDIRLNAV

DA transporter (h) = target: T2, DA transporter (h) (Homo sapiens, UniProt Q01959); test: DA transporter (h) binding, [3H]GBR12935
T2 construct: expressed in transfected cells; host or cells: CHO cells
T2 sequence (Q01959 whole entry): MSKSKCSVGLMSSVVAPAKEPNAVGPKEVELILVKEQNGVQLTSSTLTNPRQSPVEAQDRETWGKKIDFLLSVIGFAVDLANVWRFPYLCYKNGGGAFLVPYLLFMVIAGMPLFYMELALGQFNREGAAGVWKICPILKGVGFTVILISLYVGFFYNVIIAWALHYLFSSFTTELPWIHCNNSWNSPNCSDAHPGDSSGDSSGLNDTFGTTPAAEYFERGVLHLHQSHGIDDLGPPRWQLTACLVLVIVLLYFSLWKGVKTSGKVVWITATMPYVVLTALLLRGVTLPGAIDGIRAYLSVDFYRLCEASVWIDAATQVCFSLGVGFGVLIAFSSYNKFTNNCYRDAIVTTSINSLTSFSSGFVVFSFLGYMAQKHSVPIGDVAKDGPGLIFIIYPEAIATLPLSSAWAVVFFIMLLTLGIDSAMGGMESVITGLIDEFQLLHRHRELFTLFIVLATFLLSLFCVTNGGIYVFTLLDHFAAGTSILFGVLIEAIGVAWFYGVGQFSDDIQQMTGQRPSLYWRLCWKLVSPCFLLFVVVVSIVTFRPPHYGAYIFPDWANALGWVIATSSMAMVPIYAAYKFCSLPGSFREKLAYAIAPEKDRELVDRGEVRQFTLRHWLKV

NE transporter (h) = target: T3, NE transporter (h) (Homo sapiens, UniProt P23975); test: NE transporter (h) binding, [3H]nisoxetine
T3 construct: expressed in transfected cells; host or cells: MDCK cells
T3 sequence (P23975 whole entry): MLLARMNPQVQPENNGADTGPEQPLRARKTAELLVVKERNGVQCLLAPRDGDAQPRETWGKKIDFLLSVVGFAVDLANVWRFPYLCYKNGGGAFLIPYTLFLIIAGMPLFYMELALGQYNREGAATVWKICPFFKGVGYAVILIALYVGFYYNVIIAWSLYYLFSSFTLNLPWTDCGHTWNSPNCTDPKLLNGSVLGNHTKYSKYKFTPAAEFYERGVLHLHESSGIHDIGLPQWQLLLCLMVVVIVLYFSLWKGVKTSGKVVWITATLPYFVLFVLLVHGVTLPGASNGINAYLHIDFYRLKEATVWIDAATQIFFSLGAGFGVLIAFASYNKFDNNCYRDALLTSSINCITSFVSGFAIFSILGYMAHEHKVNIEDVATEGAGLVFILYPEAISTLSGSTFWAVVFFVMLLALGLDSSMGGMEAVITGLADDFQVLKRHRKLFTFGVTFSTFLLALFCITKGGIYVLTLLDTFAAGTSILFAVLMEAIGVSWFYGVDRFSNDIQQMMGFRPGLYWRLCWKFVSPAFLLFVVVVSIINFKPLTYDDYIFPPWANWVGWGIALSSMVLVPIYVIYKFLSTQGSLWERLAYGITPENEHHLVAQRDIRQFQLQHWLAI

5-HT uptake = 5-HT uptake into rat brain synaptosomes; assay type: biochemical
DA uptake = DA uptake into rat corpora striatum synaptosomes; assay type: biochemical
NE uptake = test: NE uptake, rat hypothalamus synaptosomes; assay type: biochemical
NE transporter = target: T4, NE transporter (Rattus norvegicus, UniProt Q63380); test: NE transporter binding, rat cerebral cortex, [3H]nisoxetine; conditions: Table 2, ten concentrations; read-out: Transporter and Muscarinic Receptor Binding IC50 NE
T4 construct: Rat cerebral cortex; from tissue; host or cells: rat cerebral cortex
T4 sequence (Q63380 1-617): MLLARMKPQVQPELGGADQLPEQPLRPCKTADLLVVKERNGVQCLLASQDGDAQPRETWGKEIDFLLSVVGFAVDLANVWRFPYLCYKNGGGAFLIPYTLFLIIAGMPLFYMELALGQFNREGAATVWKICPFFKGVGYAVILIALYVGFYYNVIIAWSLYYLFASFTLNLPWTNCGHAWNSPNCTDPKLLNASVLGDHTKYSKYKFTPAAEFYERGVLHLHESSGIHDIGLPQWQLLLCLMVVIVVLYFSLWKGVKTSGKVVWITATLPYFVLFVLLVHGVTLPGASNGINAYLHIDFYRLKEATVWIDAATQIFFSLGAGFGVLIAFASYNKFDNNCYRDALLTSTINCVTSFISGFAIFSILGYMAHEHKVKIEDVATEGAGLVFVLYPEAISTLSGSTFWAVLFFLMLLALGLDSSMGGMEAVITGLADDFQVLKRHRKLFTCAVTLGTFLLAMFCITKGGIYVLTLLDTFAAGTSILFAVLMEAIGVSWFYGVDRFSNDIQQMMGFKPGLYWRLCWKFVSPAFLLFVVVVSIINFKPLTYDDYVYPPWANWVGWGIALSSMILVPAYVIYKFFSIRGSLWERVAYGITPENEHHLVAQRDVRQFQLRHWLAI

5-HT transporter = target: T5, 5-HT transporter (Rattus norvegicus, UniProt P31652); test: 5-HT transporter binding, rat cerebral cortex, [3H]paroxetine; conditions: Table 2, ten concentrations; read-out: Transporter and Muscarinic Receptor Binding IC50 5-HT rat
T5 construct: Rat cerebral cortex; from tissue; host or cells: rat cerebral cortex
T5 sequence (P31652 whole entry): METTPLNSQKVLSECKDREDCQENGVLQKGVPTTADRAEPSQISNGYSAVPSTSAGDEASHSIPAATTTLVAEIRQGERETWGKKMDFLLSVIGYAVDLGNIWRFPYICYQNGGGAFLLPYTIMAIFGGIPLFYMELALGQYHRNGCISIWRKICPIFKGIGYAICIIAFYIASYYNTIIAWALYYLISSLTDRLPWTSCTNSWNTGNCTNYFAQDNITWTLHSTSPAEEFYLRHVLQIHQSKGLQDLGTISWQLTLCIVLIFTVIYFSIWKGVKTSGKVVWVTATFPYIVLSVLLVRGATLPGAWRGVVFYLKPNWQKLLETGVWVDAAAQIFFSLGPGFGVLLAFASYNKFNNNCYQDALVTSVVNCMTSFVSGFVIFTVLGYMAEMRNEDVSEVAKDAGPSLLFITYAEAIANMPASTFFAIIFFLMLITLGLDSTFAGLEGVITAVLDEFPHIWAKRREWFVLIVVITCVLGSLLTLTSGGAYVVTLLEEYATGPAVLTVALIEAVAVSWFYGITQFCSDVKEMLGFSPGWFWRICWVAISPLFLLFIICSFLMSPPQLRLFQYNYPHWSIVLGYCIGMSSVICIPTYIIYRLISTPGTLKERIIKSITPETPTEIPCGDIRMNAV

DA transporter = target: T6, DA transporter (Rattus norvegicus, UniProt P23977); test: DA transporter binding, rat striatum, [3H]GBR12935; conditions: Table 2, ten concentrations; read-out: Transporter and Muscarinic Receptor Binding IC50 DA
T6 construct: Rat striatum; from tissue; host or cells: rat striatum
T6 sequence (P23977 whole entry): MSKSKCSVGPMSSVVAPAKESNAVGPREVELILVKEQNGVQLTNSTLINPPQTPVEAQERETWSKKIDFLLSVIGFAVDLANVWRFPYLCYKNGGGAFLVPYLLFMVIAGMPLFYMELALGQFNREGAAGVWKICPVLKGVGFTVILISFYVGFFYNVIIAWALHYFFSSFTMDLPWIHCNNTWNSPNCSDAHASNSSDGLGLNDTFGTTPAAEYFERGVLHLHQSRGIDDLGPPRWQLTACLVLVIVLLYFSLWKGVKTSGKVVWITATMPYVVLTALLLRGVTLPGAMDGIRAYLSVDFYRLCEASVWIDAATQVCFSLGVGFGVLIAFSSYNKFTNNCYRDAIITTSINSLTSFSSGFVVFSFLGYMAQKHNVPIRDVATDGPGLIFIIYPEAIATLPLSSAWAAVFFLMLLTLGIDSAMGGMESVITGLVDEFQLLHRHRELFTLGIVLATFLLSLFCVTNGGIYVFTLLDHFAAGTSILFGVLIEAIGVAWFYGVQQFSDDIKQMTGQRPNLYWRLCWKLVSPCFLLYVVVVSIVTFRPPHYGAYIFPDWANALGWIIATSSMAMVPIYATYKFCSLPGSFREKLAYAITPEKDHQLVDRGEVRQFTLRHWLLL

[1] = tested on: cytochrome P450 enzymes (P450 4A, P4502C19, P450 2D6, P4501A2, P450 2C9, P450 2E1); conditions: in vitro; not by more than the stated degree; cited from earlier work
[2] = tested on: receptors for acetylcholine, histamine, norepinephrine, dopamine; monoamine oxidase; dopamine and norepinephrine reuptake sites; conditions: Willets, 1999; cited from earlier work
[3] = Table 1, racemic forms, duplicate, read-out: Transporter Binding IC50 DA
[4] = Table 1, racemic forms, duplicate, read-out: Transporter Binding IC50 NE
[5] = Table 1, rat brain synaptosomes, read-out: Functional Uptake IC50 5-HT
[6] = Table 1, rat brain synaptosomes, read-out: Functional Uptake IC50 DA
[7] = Table 1, rat brain synaptosomes, read-out: Functional Uptake IC50 NE
[8] = Table 3, rat brain synaptosomes, read-out: Monoamine Uptake IC50 DA
[9] = Table 3, rat brain synaptosomes, read-out: Monoamine Uptake IC50 NE
[10] = Table 2, ten concentrations, read-out: Transporter and Muscarinic Receptor Binding IC50 5-HT human
[11] = Table 3, human recombinant CHO cells, [3H]-GBR 12935, read-out: Human Transporter Binding IC50 DA
[12] = Table 3, human recombinant MDCK cells, [3H]-nisoxetine, read-out: Human Transporter Binding IC50 NE
[13] = Table 3, rat brain synaptosomes, read-out: Monoamine Uptake IC50 5-HT

SMILES: N#Cc1ccc2c(c1)COC2(CCCN)c1ccc(F)cc1 (racemic) [Racemic didesmethylcitalopram, 3-5-Cyano-1-(4-fluorophenyl)-1,3-dihydro-isobenzofuran-1-yl-propyl amine]
IC50 (5-HT transporter (h); Table 1, racemic forms, duplicate, read-out: Transporter Binding IC50 5-HT): 0.085 µM
IC50 (DA transporter (h); [3]): 13.2 µM
IC50 (NE transporter (h); [4]): 21.2 µM
IC50 (5-HT uptake; [5]): 0.038 µM
IC50 (DA uptake; [6]): 8.9 µM
IC50 (NE uptake; [7]): 1.6 µM

IC50 (DA uptake; [8]): 13 µM
IC50 (NE uptake; [9]): 4.9 µM
IC50 (NE transporter): 4.74 µM
SMILES: CN(C)CCCC1(c2ccc(F)cc2)OCc2cc(C#N)ccc21 (racemic) [Citalopram HBr (racemic), reference compound]

SMILES: N#Cc1ccc2c(c1)CO[C@@]2(CCCN)c1ccc(F)cc1 [(S)(+)-Didesmethylcitalopram]
fold higher affinity than its antipode, human 5-HT transporter (5-HT transporter (h)): 16 fold
IC50 (5-HT transporter (h); [10]): 0.219 µM
IC50 (DA transporter (h); [11]): 54.7 µM
IC50 (NE transporter (h); [12]): 24.2 µM
IC50 (5-HT uptake; [13]): 0.18 µM
IC50 (DA uptake; [8]): 11 µM
IC50 (NE uptake; [9]): 3.3 µM
IC50 (5-HT transporter): 0.019 µM
IC50 (DA transporter): 71.1 µM
IC50 (NE transporter): 20.1 µM

SMILES: CNCCC[C@]1(c2ccc(F)cc2)OCc2cc(C#N)ccc21 [(R)(−)-Desmethylcitalopram]
IC50 (DA transporter (h); [11]): 37.6 µM
IC50 (NE transporter (h); [12]): 0.815 µM
IC50 (5-HT uptake; [13]): 0.11 µM
IC50 (DA uptake; [8]): 9.4 µM
IC50 (NE uptake; [9]): 1.7 µM
IC50 (5-HT transporter): 0.011 µM
IC50 (DA transporter): 58 µM
IC50 (NE transporter): 0.92 µM

SMILES: CNCCC[C@@]1(c2ccc(F)cc2)OCc2cc(C#N)ccc21 [(S)(+)-Desmethylcitalopram]
IC50 (DA transporter (h); [11]): 27.7 µM
IC50 (NE transporter (h); [12]): 10.3 µM
IC50 (5-HT uptake; [13]): 0.0058 µM
IC50 (DA uptake; [8]): 7.6 µM
IC50 (NE uptake; [9]): 4.1 µM
IC50 (5-HT transporter): 0.0013 µM
IC50 (DA transporter): 79.5 µM
IC50 (NE transporter): 11.5 µM

SMILES: CNCCCC1(c2ccc(F)cc2)OCc2cc(C#N)ccc21 (racemic) [Racemic desmethylcitalopram]
IC50 (DA transporter (h); [3]): 3.73 µM
IC50 (NE transporter (h); [4]): 15.5 µM
IC50 (5-HT uptake; [5]): 0.013 µM
IC50 (DA uptake; [6]): 38 µM
IC50 (NE uptake; [7]): 1.2 µM
inhibition of the activity of cytochrome P450 enzymes [1]: mild degree

SMILES: N#Cc1ccc2c(c1)CO[C@]2(CCCN)c1ccc(F)cc1 [(R)(−)-Didesmethylcitalopram]
IC50 (5-HT transporter (h); [10]): 0.014 µM
IC50 (DA transporter (h); [11]): 38.9 µM
IC50 (NE transporter (h); [12]): 5.52 µM
IC50 (5-HT uptake; [13]): 0.13 µM
IC50 (DA uptake; [8]): 27 µM
IC50 (NE uptake; [9]): 1.3 µM
IC50 (5-HT transporter): 0.027 µM
IC50 (DA transporter): 14.1 µM
IC50 (NE transporter): 3.62 µM

SMILES: CNCCCC1c2ccccc2C=Cc2ccccc21 [Protriptyline, reference compound]
IC50 (DA transporter (h); [3]): 0.0067 µM and 0.015 µM
IC50 (DA uptake; [6]): 0.001 µM
IC50 (NE uptake; [9]): 0.0023 µM

IC50 (DA uptake; [6]): 17 µM
IC50 (NE uptake; [7]): 3.6 µM
SMILES: CN(C)CCCC1(c2ccc(F)cc2)OCc2cc(C#N)ccc21 (racemic) [Racemic citalopram, (±)-1-(3-dimethylaminopropyl)-1-(4-fluorophenyl)-1,3-dihydroisobenzofuran-5-carbonitrile, reference compound]
inhibition of the activity of cytochrome P450 enzymes [1]: mild degree
affinity for receptors for various neurotransmitters, enzymes and other reuptake sites [2]: negligible affinity
